# Values quoted from earlier work, collected in publication PMC8435859 (Frontiers in Cellular and Infection Microbiology, 2021).
# Key:
# hepatitis B virus (HBV) = system: hepatitis B virus (HBV); set-up: method as in Abdelwahed A, et al. Chem Biol Interact. 2007; settings: at a concentration of 4 microg/ml; library annotation; ref Abdelwahed A, et al. Chem Biol Interact. 2007; cited from earlier work
# PGE2 production = system: PGE2 production; set-up: method as in Kim HJ, et al. Arch Pharm Res. 2016 Feb;39(2):231-239.; settings: ref Kim HJ, et al. Arch Pharm Res. 2016 Feb;39(2):231-239.; read-out: IC50, inhibitory effect on PGE2 production; cited from earlier work
# B16F10 cell = system: B16F10 cell; set-up: method as in ref Abe F, Nagao T, Okabe H. Biological & Pharmaceutical Bulletin, 2002, 25(7):920-922; settings: ref Abe F, Nagao T, Okabe H. Biological & Pharmaceutical Bulletin, 2002, 25(7):920-922, read-out: GI50 against B16F10 cell; cited from earlier work
# lipase = biological target: lipase; set-up: method as in Tao J, et al. Zhongguo Zhong Yao Za Zhi. 2011; settings: vendor library annotation, ref Tao J, et al. Zhongguo Zhong Yao Za Zhi. 2011, read-out: IC5 (lipase inhibitory activity); cited from earlier work
# T. castaneum adults [1] = system: T. castaneum adults; set-up: method as in Tao J, et al. Zhongguo Zhong Yao Za Zhi. 2011; settings: vendor library annotation, ref Tao J, et al. Zhongguo Zhong Yao Za Zhi. 2011; cited from earlier work
# T. castaneum adults [2] = system: T. castaneum adults; set-up: method as in Tao J, et al. Zhongguo Zhong Yao Za Zhi. 2011; settings: 0.63 μg/cm, vendor library annotation, ref Tao J, et al. Zhongguo Zhong Yao Za Zhi. 2011; cited from earlier work
# β-secretase (BACE1) = biological target: β-secretase (BACE1); set-up: method as in Murakami, A., et al. Carcinogenesis 21(10), 1843-1850 (2000); settings: ref Murakami, A., et al. Carcinogenesis 21(10), 1843-1850 (2000); cited from earlier work
# TRPA1 = system: TRPA1; set-up: method as in López-Jiménez et al., European Journal of Nutrition, 2013; settings: library annotation; ref López-Jiménez et al., European Journal of Nutrition, 2013; read-out: agonist of TRPA1, EC5 value; cited from earlier work
# STAT3 = system: STAT3; set-up: method as in Shin DS, et al. Cancer Res, 2009, 69(1), 193-202; settings: cell-free assay; ref Shin DS, et al. Cancer Res, 2009, 69(1), 193-202; cited from earlier work
# STAT1 = system: STAT1; set-up: method as in Shin DS, et al. Cancer Res, 2009, 69(1), 193-202; settings: ref Shin DS, et al. Cancer Res, 2009, 69(1), 193-202; cited from earlier work
# STAT5 = system: STAT5; set-up: method as in Shin DS, et al. Cancer Res, 2009, 69(1), 193-202; settings: ref Shin DS, et al. Cancer Res, 2009, 69(1), 193-202; cited from earlier work
# tyrosinase = biological target: tyrosinase; set-up: method as in Boissy RE, et al. Exp Dermatol, 2005, 14(8), 601-608; settings: reversible inhibition; ref Boissy RE, et al. Exp Dermatol, 2005, 14(8), 601-608; cited from earlier work
# aldose reductase = settings: recombinant human aldose reductase; library annotation; ref Huang H et al., Journal of Agricultural and Food Chemistry, 2011; read-out: inhibition of recombinant human aldose reductase, IC5 value; cited from earlier work
# PGE2 release = system: PGE2 release; set-up: method as in ref Huang H et al., Journal of Agricultural and Food Chemistry, 2011; settings: library annotation; ref Huang H et al., Journal of Agricultural and Food Chemistry, 2011; cited from earlier work
# seed germination = system: seed germination; set-up: method as in Kim T K, Park K S. Cytokine, 2015, 76(2); settings: at 3 mM concentration; ref Kim T K, Park K S. Cytokine, 2015, 76(2); cited from earlier work
# cyclin-dependent kinases = settings: read-out: IC50, cyclin-dependent kinases; ref Hoessel R, et al. Nat Cell Biol, 1999, 1(1), 60-67; cited from earlier work
# GSK-3β = settings: read-out: IC50, GSK-3β; ref Hoessel R, et al. Nat Cell Biol, 1999, 1(1), 60-67; cited from earlier work
# PTP1B = system: PTP1B; set-up: method as in Xu F, Yang L, Huang X, et al. Mol Divers.; settings: ref Xu F, Yang L, Huang X, et al. Mol Divers.; read-out: IC50, PTP1B inhibition; cited from earlier work
# TNF-α = system: TNF-α; set-up: method as in ref Singh B, et al. Natural Product Research, 2013, 27(23):2227-2230.; settings: anti-inflammatory activity; ref Singh B, et al. Natural Product Research, 2013, 27(23):2227-2230.; read-out: IC50, inhibition of TNF-α; cited from earlier work
# IL-1β = system: IL-1β; set-up: method as in ref Singh B, et al. Natural Product Research, 2013, 27(23):2227-2230.; settings: anti-inflammatory activity; ref Singh B, et al. Natural Product Research, 2013, 27(23):2227-2230.; read-out: IC50, inhibition of IL-1β; cited from earlier work
# fatty acid synthase = system: fatty acid synthase; set-up: method as in Tian, WX. Current Medicinal Chemistry, 2006, 13 (8): 967–977; settings: ref Tian, WX. Current Medicinal Chemistry, 2006, 13 (8): 967–977; cited from earlier work
# [3] = system: nuclear factor of activated T cells (NFAT) transcription factor; set-up: method as in Phan, C., et al. Biofactors, 2016; settings: vendor library annotation, ref Phan, C., et al. Biofactors, 2016; cited from earlier work
# [4] = biological target: 6-phosphogluconate dehydrogenase; set-up: method as in Ma X, et al. Pest Manag Sci, 2010, 66(7), 718-724; settings: ref Ma X, et al. Pest Manag Sci, 2010, 66(7), 718-724; cited from earlier work
# [5] = biological target: 6-phosphogluconate dehydrogenase; set-up: method as in Ma X, et al. Pest Manag Sci, 2010, 66(7), 718-724; settings: ref Ma X, et al. Pest Manag Sci, 2010, 66(7), 718-724; cited from earlier work; remark: listed apart in the source
# HeLa cells = system: HeLa cells; set-up: method as in Wu ZT, et al. Acta Pharmacol Sin. 2014 Sep;35(9):1188-98; settings: ref Wu ZT, et al. Acta Pharmacol Sin. 2014 Sep;35(9):1188-98, read-out: IC50, autophagy followed by apoptotic cell death; cited from earlier work
# BT474 cells = system: BT474 cells; set-up: method as in Wu ZT, et al. Acta Pharmacol Sin. 2014 Sep;35(9):1188-98; settings: ref Wu ZT, et al. Acta Pharmacol Sin. 2014 Sep;35(9):1188-98, read-out: IC50, cellular response via inhibition of mTORC1 and induction of ER stress; cited from earlier work
# MDAMB231 = system: MDAMB231; set-up: method as in Wu ZT, et al. Acta Pharmacol Sin. 2014 Sep;35(9):1188-98; settings: ref Wu ZT, et al. Acta Pharmacol Sin. 2014 Sep;35(9):1188-98, read-out: IC50, cellular response via inhibition of mTORC1 and induction of ER stress; cited from earlier work
# cytochrome P450 1A1 = system: cytochrome P450 1A1; set-up: method as in Jo SP, Kim JK, Lim YH. Planta Med. 2014 Aug;80(13):1067-71; settings: mechanism-based, selective inactivator; ref Jo SP, Kim JK, Lim YH. Planta Med. 2014 Aug;80(13):1067-71; read-out: IC50, cytochrome P450 1A1 inactivation; cited from earlier work
# HL-60R = system: HL-60R; set-up: method as in Jo SP, Kim JK, Lim YH. Planta Med. 2014 Aug;80(13):1067-71; settings: HL-60R cancer cell line; ref Jo SP, Kim JK, Lim YH. Planta Med. 2014 Aug;80(13):1067-71; read-out: IC50, proliferation of HL-60R; cited from earlier work
# HepG2 = system: HepG2; set-up: method as in Jo SP, Kim JK, Lim YH. Planta Med. 2014 Aug;80(13):1067-71; settings: HepG2 cancer cell line; ref Jo SP, Kim JK, Lim YH. Planta Med. 2014 Aug;80(13):1067-71; read-out: IC50, proliferation of HepG2; cited from earlier work
compound,measurement,setting,value
"O=C(OC[C@H]1OC(OC(=O)c2cc(O)c(O)c(O)c2)[C@H](OC(=O)c2cc(O)c(O)c(O)c2)[C@@H](OC(=O)c2cc(O)c(O)c(O)c2)[C@@H]1OC(=O)c1cc(O)c(O)c(O)c1)c1cc(O)c(O)c(O)c1 (stereo partly drawn) [1,2,3,4,6-O-Pentagalloylglucose]",reduction of the HBsAg level,hepatitis B virus (HBV),25%
CC(C)=CCc1cc2ccc(=O)oc2cc1O [7-demethylsuberosin],IC50,PGE2 production,9.42 µM
C[C@@H]1OC(O[C@@H]2[C@@H](O)[C@H](OCCc3ccc(O)c(O)c3)O[C@H](CO[C@@H]3OC[C@@H](O)[C@H](O)[C@H]3O)[C@H]2OC(=O)/C=C/c2ccc(O)c(O)c2)[C@H](O)[C@H](O)[C@H]1O (stereo partly drawn) [Arenarioside],GI50,B16F10 cell,10 to 16 µM
C/C=C/C#CC#C/C=C/c1ccco1 [Atractylodin],IC50,lipase,39.1 µM
same,LD50,T. castaneum adults [1],1.83 µg/cm
same,repellency,T. castaneum adults [2],> 90%
CC(C)=CCC/C(C)=C/COc1ccc2ccc(=O)oc2c1 [Auraptene],IC50,β-secretase (BACE1),345 µM
CC(C)c1cc2c(c(O)c1O)[C@@]13CCCC(C)(C)[C@@H]1C[C@@H]2OC3=O [Carnosol],EC50,TRPA1,12.5 µM
C[C@H]1COC2=C1C(=O)C(=O)c1c2ccc2c1CCCC2(C)C [Cryptotanshinone],IC50,STAT3,4.6 µM
same,inhibition of STAT1,STAT1,no inhibition
same,inhibition of STAT5,STAT5,no inhibition
Oc1ccc(OC2CCCCO2)cc1 (stereo not drawn) [Deoxyarbutin],IC50,tyrosinase,0.05 µM
CC1OC(OC2C(=O)c3c(O)cc(O)cc3OC2c2ccc(O)cc2)C(O)C(O)C1O (stereo not drawn) [Engeletin],IC50,aldose reductase,1.16 µM
same,"inhibition of PGE2 release, IC5",PGE2 release,19.6 µg/mL
C[C@]1(OC(=O)/C=C/c2ccccc2)C[C@@H](O)[C@]2(O)C=CO[C@@H](O[C@@H]3O[C@H](CO)[C@@H](O)[C@H](O)[C@H]3O)[C@@H]21 [Harpagoside],inhibition of seed germination,seed germination,"1. Harpagoside has anti-inflammatory activity. 2. Harpagoside at 3 mM concentration, shows moderate inhibition of seed germination. 3. Harpagoside can inhibit lipopolysaccharide-induced mRNA levels and protein expression of cyclooxygenase-2 and inducible nitric oxide in HepG2 cells."
O=C1Nc2ccccc2/C1=C1/Nc2ccccc2C1=O [Indirubin],IC50,cyclin-dependent kinases,~5 µM
same,IC50,GSK-3β,~0.6 µM
C=C(C)[C@@H]1CC[C@]2(C)CC[C@]3(C)[C@H](CC[C@@H]4[C@@]5(C)CCC(=O)C(C)(C)[C@@H]5CC[C@]43C)[C@@H]12 [LUPENONE],IC50,PTP1B,15.1 µM
COc1cc2oc(-c3ccccc3)cc(=O)c2c(O)c1OC [MOSLOFLAVONE],IC50,TNF-α,0.71 µM
same,IC50,IL-1β,7.8 µM
O=c1c(O)c(-c2ccc(O)cc2O)oc2cc(O)cc(O)c12 [Morin],IC50,fatty acid synthase,2.33 µM
COc1cc2oc(-c3ccccc3)cc(=O)c2c(O)c1O [Negletein],IC50,[3],3.89 µM
COc1cc(O)c2c(c1)C(=O)c1cc(C)cc(O)c1C2=O [Rheochrysidin],IC50,[4],38.5 µM
same,Kd,[5],26 µM
C[C@H]1CC[C@@]2(OC1)O[C@H]1C[C@H]3[C@@H]4CC[C@@H]5C[C@@H](O[C@@H]6O[C@H](CO)[C@H](O)[C@H](O)[C@H]6O[C@@H]6O[C@H](CO)[C@@H](O)[C@H](O)[C@H]6O)CC[C@]5(C)[C@H]4CC[C@]3(C)[C@H]1[C@@H]2C [Timosaponin AIII],IC50,HeLa cells,10 µM
same,IC50,BT474 cells,2.5 µM
same,IC50,MDAMB231,6 µM
Rhapontigenin,IC50,cytochrome P450 1A1,0.4 µM
same,IC50,HL-60R,48 µM
same,IC50,HepG2,48 µM
